Test results taken from ChEMBL document CHEMBL3882729, “Receptor-type kinase modulators and methods of use” (2009).
pIC50: −log10 of the molar value.

Tests used:
[1] = target: Vascular endothelial growth factor receptor 1 (Homo sapiens, UniProt P17948); experiment: Inhibition of recombinant human N-terminal GST-tagged factor 10a cleavage site-fused Flt1 (K784 to I1338 residues) expressed in baculovirus infected insect Sf9 cells using poly-EY as substrate after 120 mins in presence of gamma33P-ATP by liquid scintillation spectrometry
Chain of Vascular endothelial growth factor receptor 1 (P17948 whole entry, the tested form may be a part): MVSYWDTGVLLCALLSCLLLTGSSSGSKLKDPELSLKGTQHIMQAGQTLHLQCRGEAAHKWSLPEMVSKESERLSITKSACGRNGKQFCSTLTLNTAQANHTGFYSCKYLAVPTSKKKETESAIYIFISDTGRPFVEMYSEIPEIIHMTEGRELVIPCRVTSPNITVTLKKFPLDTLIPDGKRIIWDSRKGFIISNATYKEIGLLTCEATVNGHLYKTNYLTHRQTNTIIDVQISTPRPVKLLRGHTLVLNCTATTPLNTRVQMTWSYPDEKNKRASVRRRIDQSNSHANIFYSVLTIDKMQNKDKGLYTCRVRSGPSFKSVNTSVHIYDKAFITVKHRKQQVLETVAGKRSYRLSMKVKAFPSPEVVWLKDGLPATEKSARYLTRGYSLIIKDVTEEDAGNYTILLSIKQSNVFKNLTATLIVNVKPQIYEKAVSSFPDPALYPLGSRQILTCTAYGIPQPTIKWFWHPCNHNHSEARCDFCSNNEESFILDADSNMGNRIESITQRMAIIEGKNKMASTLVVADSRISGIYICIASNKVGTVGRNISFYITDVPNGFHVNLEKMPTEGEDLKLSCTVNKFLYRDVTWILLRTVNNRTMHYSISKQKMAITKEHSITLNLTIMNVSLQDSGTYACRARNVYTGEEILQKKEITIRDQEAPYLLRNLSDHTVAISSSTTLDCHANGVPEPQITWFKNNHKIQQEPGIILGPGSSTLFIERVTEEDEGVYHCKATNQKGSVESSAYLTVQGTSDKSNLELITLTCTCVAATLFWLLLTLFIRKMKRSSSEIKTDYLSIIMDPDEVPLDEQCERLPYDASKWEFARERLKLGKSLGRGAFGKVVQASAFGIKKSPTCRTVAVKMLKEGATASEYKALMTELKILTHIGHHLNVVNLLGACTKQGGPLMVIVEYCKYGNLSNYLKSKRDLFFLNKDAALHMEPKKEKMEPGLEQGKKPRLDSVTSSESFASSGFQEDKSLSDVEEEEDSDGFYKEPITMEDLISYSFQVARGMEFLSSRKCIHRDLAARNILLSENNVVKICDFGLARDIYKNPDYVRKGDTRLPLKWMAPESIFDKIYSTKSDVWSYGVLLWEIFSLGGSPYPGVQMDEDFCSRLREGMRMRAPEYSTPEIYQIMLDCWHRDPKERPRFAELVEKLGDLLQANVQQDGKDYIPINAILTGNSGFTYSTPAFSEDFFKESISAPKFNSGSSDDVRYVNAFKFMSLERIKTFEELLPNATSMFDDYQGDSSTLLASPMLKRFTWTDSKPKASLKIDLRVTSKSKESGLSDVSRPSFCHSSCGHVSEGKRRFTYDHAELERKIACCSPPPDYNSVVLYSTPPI

[2] = target: Vascular endothelial growth factor receptor 2 (Homo sapiens, UniProt P35968); experiment: Inhibition of recombinant human N-terminal GST-fused KDR (D807 to V1356 residues) expressed in baculovirus infected […] insect Sf9 cells using poly-EY as substrate after 240 mins by luciferase coupled chemiluminescence assay
Chain of Vascular endothelial growth factor receptor 2 (P35968 whole entry, the tested form may be a part): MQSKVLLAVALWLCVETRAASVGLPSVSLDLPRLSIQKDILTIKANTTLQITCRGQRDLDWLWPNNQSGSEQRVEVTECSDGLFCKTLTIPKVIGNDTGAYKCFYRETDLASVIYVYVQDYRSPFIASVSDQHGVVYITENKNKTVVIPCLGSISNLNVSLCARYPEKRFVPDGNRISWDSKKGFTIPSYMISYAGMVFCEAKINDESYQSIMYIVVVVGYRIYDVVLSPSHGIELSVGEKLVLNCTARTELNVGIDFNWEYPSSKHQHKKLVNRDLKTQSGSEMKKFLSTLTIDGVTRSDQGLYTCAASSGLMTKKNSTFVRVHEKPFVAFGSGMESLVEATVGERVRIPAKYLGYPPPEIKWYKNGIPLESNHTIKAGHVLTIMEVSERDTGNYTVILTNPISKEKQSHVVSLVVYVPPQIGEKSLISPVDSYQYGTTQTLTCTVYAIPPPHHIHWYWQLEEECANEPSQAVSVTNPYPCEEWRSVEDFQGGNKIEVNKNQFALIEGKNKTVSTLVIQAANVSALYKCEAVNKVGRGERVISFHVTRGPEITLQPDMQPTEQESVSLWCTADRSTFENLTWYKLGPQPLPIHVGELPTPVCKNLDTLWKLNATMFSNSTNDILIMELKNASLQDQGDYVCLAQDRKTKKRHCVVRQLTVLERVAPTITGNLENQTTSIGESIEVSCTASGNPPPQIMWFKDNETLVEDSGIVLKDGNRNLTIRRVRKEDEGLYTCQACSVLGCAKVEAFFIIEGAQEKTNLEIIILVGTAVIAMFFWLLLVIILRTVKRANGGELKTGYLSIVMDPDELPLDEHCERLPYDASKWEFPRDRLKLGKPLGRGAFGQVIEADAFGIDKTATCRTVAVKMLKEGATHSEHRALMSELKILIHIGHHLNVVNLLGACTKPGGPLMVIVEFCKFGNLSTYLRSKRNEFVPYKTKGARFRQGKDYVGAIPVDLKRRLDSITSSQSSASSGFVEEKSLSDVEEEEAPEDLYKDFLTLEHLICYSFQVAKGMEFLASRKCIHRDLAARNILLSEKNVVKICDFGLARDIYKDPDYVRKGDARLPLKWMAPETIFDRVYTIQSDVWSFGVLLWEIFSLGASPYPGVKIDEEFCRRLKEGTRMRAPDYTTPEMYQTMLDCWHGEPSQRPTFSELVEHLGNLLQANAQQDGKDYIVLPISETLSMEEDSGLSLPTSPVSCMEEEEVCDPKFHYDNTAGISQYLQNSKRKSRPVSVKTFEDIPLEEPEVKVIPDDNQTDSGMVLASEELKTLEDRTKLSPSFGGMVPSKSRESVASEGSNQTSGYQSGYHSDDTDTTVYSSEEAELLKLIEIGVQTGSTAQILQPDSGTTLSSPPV

[3] = target: T1, Ephrin type-B receptor 4 (Homo sapiens, UniProt P54760); experiment: Inhibition of recombinant human N-terminal His6-tagged EphB4 kinase domain (E605 to E890 residues) expressed in baculovirus using poly-AEKY as substrate after 150 mins in presence of gamma33P-ATP by liquid scintillation spectrometry
T1 sequence (P54760 whole entry): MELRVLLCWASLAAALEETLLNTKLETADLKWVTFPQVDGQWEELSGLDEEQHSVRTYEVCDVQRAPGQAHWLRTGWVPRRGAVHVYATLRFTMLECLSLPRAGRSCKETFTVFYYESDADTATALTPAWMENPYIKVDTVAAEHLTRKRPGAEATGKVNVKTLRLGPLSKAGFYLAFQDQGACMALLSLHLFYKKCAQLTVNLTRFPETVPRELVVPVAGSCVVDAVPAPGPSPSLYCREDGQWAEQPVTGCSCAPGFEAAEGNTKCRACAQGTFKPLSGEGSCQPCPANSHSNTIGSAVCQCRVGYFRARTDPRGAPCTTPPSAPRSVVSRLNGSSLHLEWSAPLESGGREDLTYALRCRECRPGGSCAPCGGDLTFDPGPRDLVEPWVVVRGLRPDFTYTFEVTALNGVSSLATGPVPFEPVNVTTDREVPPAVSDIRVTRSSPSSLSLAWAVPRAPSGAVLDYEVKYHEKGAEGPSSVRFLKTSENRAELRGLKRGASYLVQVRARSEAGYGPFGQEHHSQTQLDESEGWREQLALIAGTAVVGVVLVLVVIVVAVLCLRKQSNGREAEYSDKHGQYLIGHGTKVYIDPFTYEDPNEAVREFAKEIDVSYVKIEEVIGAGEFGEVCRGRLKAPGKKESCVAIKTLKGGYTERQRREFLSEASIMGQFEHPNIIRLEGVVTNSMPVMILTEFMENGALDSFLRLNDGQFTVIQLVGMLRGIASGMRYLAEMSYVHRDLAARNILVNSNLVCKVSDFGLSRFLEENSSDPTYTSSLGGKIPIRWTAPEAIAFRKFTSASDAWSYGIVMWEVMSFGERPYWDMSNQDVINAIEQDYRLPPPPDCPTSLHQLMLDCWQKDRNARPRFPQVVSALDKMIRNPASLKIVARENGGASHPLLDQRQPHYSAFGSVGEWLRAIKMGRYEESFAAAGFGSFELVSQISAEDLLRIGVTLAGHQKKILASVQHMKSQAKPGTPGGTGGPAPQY

[4] = target: Ephrin type-A receptor 2 (Homo sapiens, UniProt P29317); experiment: Inhibition of recombinant human N-terminal His6-tagged EphA2 (N598 to R890 residues) expressed in baculovirus using poly-EY as substrate after 180 mins by luciferase coupled chemiluminescence assay
Chain of Ephrin type-A receptor 2 (P29317 whole entry, the tested form may be a part): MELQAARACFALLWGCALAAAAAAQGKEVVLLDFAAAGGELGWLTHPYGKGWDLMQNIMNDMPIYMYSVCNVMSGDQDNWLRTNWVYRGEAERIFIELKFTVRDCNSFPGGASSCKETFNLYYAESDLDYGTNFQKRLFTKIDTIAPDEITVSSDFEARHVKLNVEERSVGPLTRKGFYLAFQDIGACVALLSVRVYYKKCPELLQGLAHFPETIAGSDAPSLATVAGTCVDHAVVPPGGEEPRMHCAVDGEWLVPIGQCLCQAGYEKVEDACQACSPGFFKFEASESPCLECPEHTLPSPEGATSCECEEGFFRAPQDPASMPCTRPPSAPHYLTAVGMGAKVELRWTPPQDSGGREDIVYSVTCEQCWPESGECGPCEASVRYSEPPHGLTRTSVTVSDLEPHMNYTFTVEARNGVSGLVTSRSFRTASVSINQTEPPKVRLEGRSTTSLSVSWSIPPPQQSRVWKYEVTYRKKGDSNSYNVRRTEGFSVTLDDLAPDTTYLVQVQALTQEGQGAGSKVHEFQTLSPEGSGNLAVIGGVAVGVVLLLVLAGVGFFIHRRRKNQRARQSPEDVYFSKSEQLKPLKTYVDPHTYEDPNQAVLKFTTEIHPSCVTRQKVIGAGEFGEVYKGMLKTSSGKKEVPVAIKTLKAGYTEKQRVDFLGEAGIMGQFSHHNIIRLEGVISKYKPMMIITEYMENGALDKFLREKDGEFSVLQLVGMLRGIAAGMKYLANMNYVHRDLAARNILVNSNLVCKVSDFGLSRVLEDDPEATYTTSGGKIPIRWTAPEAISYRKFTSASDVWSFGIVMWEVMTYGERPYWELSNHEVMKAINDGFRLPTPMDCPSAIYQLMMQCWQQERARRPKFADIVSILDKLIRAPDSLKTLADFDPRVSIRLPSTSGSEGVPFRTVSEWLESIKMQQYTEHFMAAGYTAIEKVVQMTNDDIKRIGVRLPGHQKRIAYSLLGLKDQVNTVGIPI

[5] = target: Receptor tyrosine-protein kinase erbB-2 (Homo sapiens, UniProt P04626); experiment: Inhibition of recombinant human N-terminal GST His6-tagged thrombin cleavage site-fused ErbB2 kinase domain (Q679 to V1255 residues) expressed in baculovirus infected insect Sf9 cells using biotinylated poly-EY as substrate after 60 mins by alphascreen assay
Chain of Receptor tyrosine-protein kinase erbB-2 (P04626 whole entry, the tested form may be a part): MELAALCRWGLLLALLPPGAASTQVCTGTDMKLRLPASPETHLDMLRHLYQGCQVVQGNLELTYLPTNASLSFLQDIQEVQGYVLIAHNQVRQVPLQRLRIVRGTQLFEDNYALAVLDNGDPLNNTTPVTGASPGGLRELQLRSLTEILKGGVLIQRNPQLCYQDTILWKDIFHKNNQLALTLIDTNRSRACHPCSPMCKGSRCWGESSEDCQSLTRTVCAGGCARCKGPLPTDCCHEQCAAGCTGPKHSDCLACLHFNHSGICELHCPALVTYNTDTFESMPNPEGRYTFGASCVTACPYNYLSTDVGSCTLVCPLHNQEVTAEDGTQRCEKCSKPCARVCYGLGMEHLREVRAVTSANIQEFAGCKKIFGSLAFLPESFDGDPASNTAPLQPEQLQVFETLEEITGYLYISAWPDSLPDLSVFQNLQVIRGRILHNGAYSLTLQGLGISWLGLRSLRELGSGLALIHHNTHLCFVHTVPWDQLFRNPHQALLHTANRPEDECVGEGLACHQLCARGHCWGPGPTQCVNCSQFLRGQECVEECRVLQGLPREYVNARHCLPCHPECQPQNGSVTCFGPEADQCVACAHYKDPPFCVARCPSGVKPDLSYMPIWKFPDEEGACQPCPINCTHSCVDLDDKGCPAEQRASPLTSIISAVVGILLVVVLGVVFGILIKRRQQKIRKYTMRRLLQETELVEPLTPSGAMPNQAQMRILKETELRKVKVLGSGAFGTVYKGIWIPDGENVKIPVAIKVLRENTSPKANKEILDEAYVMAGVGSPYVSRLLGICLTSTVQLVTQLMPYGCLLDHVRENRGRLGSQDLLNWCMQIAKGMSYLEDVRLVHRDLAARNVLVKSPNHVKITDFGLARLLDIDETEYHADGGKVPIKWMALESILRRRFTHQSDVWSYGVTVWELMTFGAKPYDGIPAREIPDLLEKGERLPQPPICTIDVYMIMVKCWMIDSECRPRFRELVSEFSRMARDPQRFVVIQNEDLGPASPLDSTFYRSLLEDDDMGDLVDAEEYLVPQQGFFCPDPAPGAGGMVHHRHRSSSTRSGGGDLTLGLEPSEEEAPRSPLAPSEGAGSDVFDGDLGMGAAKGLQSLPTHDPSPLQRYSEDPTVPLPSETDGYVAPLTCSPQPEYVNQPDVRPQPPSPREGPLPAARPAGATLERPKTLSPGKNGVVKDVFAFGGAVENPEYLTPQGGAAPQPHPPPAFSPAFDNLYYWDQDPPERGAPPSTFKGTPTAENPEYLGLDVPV

| pIC50 [1] | pIC50 [2] | pIC50 [3] | pIC50 [4] | pIC50 [5] | Compound |
| --- | --- | --- | --- | --- | --- |
| > 7.30 | > 7.30 | > 7.30 | > 7.30 | > 7.30 | COc1cc2c(Nc3ccc(Cl)c(Cl)c3F)ncnc2cc1OC[C@@H]1CN2CCOC[C@H]2CO1 |
| 6.00 to 7.30 | 6.00 to 7.30 | > 7.30 | 6.00 to 7.30 | 6.00 to 7.30 | COc1cc2c(Nc3ccc(F)c(Cl)c3F)ncnc2cc1OC[C@@H]1CN2CCOC[C@H]2CO1 |

| Compound | pIC50 [1] | pIC50 [2] | pIC50 [3] | pIC50 [4] | pIC50 [5] |
| --- | --- | --- | --- | --- | --- |
| COc1cc2c(Nc3ccc(Cl)c(Cl)c3)ncnc2cc1OC[C@@H]1CN2CCC[C@@H]2CO1 | 6.00 to 7.30 | > 7.30 | > 7.30 | > 7.30 | > 7.30 |
